Assay results taken from patent US10368545B2, “Substituted 2-thioimidazolylcarboxamides as pesticides” (BAYER CROPSCIENCE AKTIENGESELLSCHAFT, priority 2015, dated 2019).
Values joined by “and” are separate entries in the source; they are usually repeats but may differ in a detail not shown here. Identical values can stand only once. Like-named read-outs stand apart in the source and are kept apart here.

How the values were obtained:
[1] = log P by HPLC on reversed-phase C18 columns (OECD Guideline 117); format: physicochemical; conditions: for chromatographic logP: reversed-phase C18 HPLC column; for logP[a]: method [a]; for logP[b]: method [b]
Experimental: The log P values were determined in accordance with OECD Guideline 117 (EC Directive 92/69/EEC) by HPLC (high-performance liquid chromatography) using reversed-phase (RP) columns (C18), by the following methods:
[a] The LC-MS determination in the acidic range was carried out at pH 2.7 with 0.1% aqueous formic acid and acetonitrile (contains 0.1% formic acid) as mobile phases; linear gradient from 10% acetonitrile to 95% acetonitrile.
[b] LC-MS determination in the neutral range was carried out at pH 7.8 with 0.001 molar aqueous ammonium hydrogencarbonate solution and acetonitrile as mobile phases; linear gradient from 10% acetonitrile to 95% acetonitrile.

[2] = tested on: green peach aphid (Myzus persicae); assay: Myzus persicae spray test (Chinese cabbage leaf discs); format: in vivo; conditions: application rate 500 g/ha, after 5 or 6 days, Chinese cabbage leaf discs
Experimental: Myzus persicae—Spray Test
Solvent: 78 parts by weight of acetone • • 1.5 parts by weight of dimethylformamide
Emulsifier: alkylaryl polyglycol ether
To produce a suitable active compound preparation, 1 part by weight of active compound is dissolved using the stated parts by weight of solvent and made up with water containing an emulsifier concentration of 1000 ppm until the desired concentration is attained. To produce further test concentrations, the preparation is diluted with emulsifier-containing water.
Discs of Chinese cabbage leaves (Brassica pekinensis) infested by all stages of the green peach aphid (Myzus persicae) are sprayed with an active compound preparation of the desired concentration.
After 5 or 6 days, the efficacy in % is determined. 100% means that all the aphids were killed; 0% means that no aphids were killed.

[3] = pH 2.7, method [a], read-out: logP[a]
[4] = pH 7.8, method [b], read-out: logP[b]

## CN(C(=O)c1cncn1Cc1ccccc1)c1cccnc1 [1-benzyl-N-methyl-N-(pyridin-3-yl)-1H-imidazole-5-carboxamide]
[1]; pH 2.7, acidic range, pH 2.7, 0.1% aqueous formic acid / acetonitrile, read-out: log P[a]
  chromatographic logP: 0.85
[1]; pH 7.8, neutral range, pH 7.8, 0.001 molar aqueous ammonium hydrogencarbonate / acetonitrile, read-out: log P[n]
  chromatographic logP: 1.4

## CN(C(=O)c1c(Br)nc(Sc2ncccn2)n1C)c1cccnc1 [I-A-13]
[1]
  logP[a]: 1.25
  logP[b]: 1.31

## CN(C(=O)c1cnc(Sc2ccccc2[N+](=O)[O-])n1C)c1cccnc1 [I-A-16]
[1]
  logP[a]: 1.68
  logP[b]: 1.78
[2]
  efficacy (aphids killed): 90%

## CN(C(=O)c1cnc(SC2CCCCC2)n1C)c1cccnc1 [I-A-17]
[1]
  logP[a]: 1.89
  logP[b]: 2.26

## CC(=O)CSc1ncc(C(=O)N(C)c2cccnc2)n1C [I-A-23]
[1]
  logP[a]: 0.67 and 0.71
[2]
  efficacy (aphids killed): 90%

## CCOC(=O)CSc1ncc(C(=O)N(C)c2cccnc2)n1C [I-A-24]
[1]
  logP[a]: 1.20
  logP[b]: 1.34
[2]
  efficacy (aphids killed): 90%

## COC(=O)CSc1ncc(C(=O)N(C)c2cccnc2)n1C [I-A-25]
[1]
  logP[a]: 0.88
  logP[b]: 1.09
[2]
  efficacy (aphids killed): 90%

## CN(C(=O)c1cnc(SCC(=O)C(C)(C)C)n1C)c1cccnc1 [I-A-28]
[1]
  logP[a]: 1.53
  logP[b]: 1.78
[2]
  efficacy (aphids killed): 90%

## CN(C(=O)c1cnc(SCC(=O)O)n1C)c1cccnc1 [I-A-29]
[1]
  logP[a]: 0.28
  logP[b]: 1.05

## CN(C(=O)c1cnc(SCC(=O)C2CC2)n1C)c1cccnc1 [I-A-31]
[1]
  logP[a]: 0.97
  logP[b]: 1.28
[2]
  efficacy (aphids killed): 90%

## CN(C(=O)c1cnc(SCC(N)=O)n1C)c1cccnc1 [I-A-32]
[1]
  logP[a]: 0.11
  logP[b]: 0.50

## CNC(=O)CSc1ncc(C(=O)N(C)c2cccnc2)n1C [I-A-33]
[1]; [3]
  chromatographic logP: 0.33
[1]; [4]
  chromatographic logP: 0.62

## CN(C)C(=O)CSc1ncc(C(=O)N(C)c2cccnc2)n1C [I-A-34]
[1]
  logP[a]: 0.59
  logP[b]: 0.81

## CCSc1ncc(C(=O)Nc2cccnc2)n1C [I-A-41]
[1]
  logP[a]: 0.71
  logP[b]: 1.54
[2]
  efficacy (aphids killed): 90%

## CNC(=O)CS(=O)(=O)c1ncc(C(=O)N(C)c2cccnc2)n1C [I-A-42]
[1]
  logP[a]: 0.35
  logP[b]: 0.55

## CN(C(=O)c1cnc(Sc2ccc(C(C)(C)C)cc2)n1C)c1cccnc1 [I-A-63]
[1]
  logP[a]: 2.75
  logP[b]: 2.92

## CN(C)C(=O)c1ccccc1Sc1ncc(C(=O)N(C)c2cccnc2)n1C [I-A-67]
[1]
  logP[a]: 1.17
  logP[b]: 1.25
[2]
  efficacy (aphids killed): 90%

## CN(C(=O)c1cnc(Sc2cccc([N+](=O)[O-])c2)n1C)c1cccnc1 [I-A-68]
[1]
  logP[a]: 1.71
  logP[b]: 1.77
[2]
  efficacy (aphids killed): 100%

## COc1ccccc1Sc1ncc(C(=O)N(C)c2cccnc2)n1C [I-A-72]
[1]
  logP[a]: 1.59
  logP[b]: 1.74

## CN(C(=O)c1cnc(S(=O)(=O)c2cccc(Cl)c2)n1C)c1cccnc1 [I-A-73]
[1]
  logP[a]: 1.81
  logP[b]: 1.87
[2]
  efficacy (aphids killed): 90%

## CN(C(=O)c1cnc([S+]([O-])c2cccc(Cl)c2)n1C)c1cccnc1 (stereo not shown) [I-A-74]
[1]
  logP[a]: 1.45
  logP[b]: 1.55
[2]
  efficacy (aphids killed): 90%

## CN(C(=O)c1cnc([S+]([O-])c2ccc(C(C)(C)C)cc2)n1C)c1cccnc1 (stereo not shown) [I-A-75]
[1]
  logP[a]: 2.14
  logP[b]: 2.19
[2]
  efficacy (aphids killed): 90%

## CN(C(=O)c1cnc(S(=O)(=O)c2ccc(C(C)(C)C)cc2)n1C)c1cccnc1 [I-A-76]
[1]
  logP[a]: 2.53
  logP[b]: 2.55

## COc1ccc(S(=O)(=O)c2ncc(C(=O)N(C)c3cccnc3)n2C)cc1 [I-A-81]
[1]
  logP[a]: 1.53
  logP[b]: 1.58

## CN(C(=O)c1cnc(S(=O)(=O)c2ccc(F)cc2)n1C)c1ccc[n+]([O-])c1 [I-A-83]
[1]; [3]
  chromatographic logP: 1.12
[1]; [4]
  chromatographic logP: 1.23
[2]; Myzus persicae, foliar, read-out: efficacy (aphids killed)
  pest or weed control at 500 g/ha: 90%

## CN(C(=O)c1cnc(S(=O)(=O)c2ccccn2)n1C)c1cccnc1 [I-A-85]
[1]
  logP[a]: 1.01
  logP[b]: 1.10

## CN(C(=O)c1cnc(S(=O)(=O)c2ccccc2)n1C)c1cccnc1 [I-A-88]
[1]
  logP[a]: 1.37
  logP[b]: 1.47

## CN(C(=O)c1cnc(S(=O)(=O)c2ccc([N+](=O)[O-])cc2)n1C)c1cccnc1 [I-A-90]
[1]
  logP[a]: 1.58
  logP[b]: 1.68

## CN(C)C(=O)c1cccc([S+]([O-])c2ncc(C(=O)N(C)c3cccnc3)n2C)c1 (stereo not shown) [I-A-91]
[1]
  logP[a]: 0.76
  logP[b]: 0.96
